In ChEMBL document CHEMBL1201862, “PubChem BioAssay data set” (2004):
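Growth conditions: 96-well plates. Treatment: test compound, 48 hours, 5 concentrations. Analysis: linear interpolation between bracketing concentrations; unreached endpoints set to highest concentration. At the GI50, growth is halved.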 Active and inactive are the calls of the source. No stated cut-off is given here; in the data, active = GI50 up to about 1.1 µM and inactive = higher.

Tests used:
Assay in all cases: DTP human tumour cell line panel, 48 h
A498 = tested on: A498
CCRF-CEM = tested on: CCRF-CEM
COLO 205 = tested on: COLO 205
HT-29 = tested on: HT-29
KM12 = tested on: KM12
M14 = tested on: M14
MCF7 = tested on: MCF7
MDA-N = tested on: MDA-N
MOLT-4 = tested on: MOLT-4
NCI-H460 = tested on: NCI-H460
OVCAR-3 = tested on: OVCAR-3
OVCAR-8 = tested on: OVCAR-8
PC-3 = tested on: PC-3
SF-539 = tested on: SF-539
SK-MEL-5 = tested on: SK-MEL-5
SN12C = tested on: SN12C
SR = tested on: SR
UACC-62 = tested on: UACC-62
RXF 393 = tested on: RXF 393

Measured: GI50

COc1c2c(c3c(c1OC)c(=O)c1ccccc1n3C)OCO2
inactive: A498 > 100 µM | CCRF-CEM > 100 µM | COLO 205 > 100 µM | HT-29 > 100 µM | KM12 > 100 µM | M14 > 100 µM | MCF7 > 100 µM | MDA-N > 100 µM | MOLT-4 > 100 µM | NCI-H460 36.1 µM | OVCAR-3 > 100 µM | OVCAR-8 > 100 µM | PC-3 > 100 µM | SF-539 > 100 µM | SK-MEL-5 > 100 µM | SN12C > 100 µM | SR > 100 µM | UACC-62 > 100 µM

COC(=O)c1c(OC(C)=O)ccc2c1c1c(OC(C)=O)c3ccccc3c(OC(C)=O)c1n2C
inactive: CCRF-CEM 23.2 µM | COLO 205 29.2 µM | HT-29 38.4 µM | KM12 20.5 µM | M14 27.6 µM | MCF7 28.7 µM | MDA-N 32.2 µM | MOLT-4 15.4 µM | NCI-H460 26.4 µM | OVCAR-3 14.7 µM | OVCAR-8 22.6 µM | PC-3 30.4 µM | RXF 393 29.5 µM | SF-539 20.7 µM | SK-MEL-5 6.04 µM | SN12C 53.7 µM | SR 14.5 µM | UACC-62 17.9 µM

CC1(C)Oc2ccc3c(=O)c4ccccc4oc3c2C1C(=O)O (stereo not drawn)
inactive: A498 > 100 µM | CCRF-CEM > 100 µM | COLO 205 > 100 µM | HT-29 > 100 µM | M14 > 100 µM | MCF7 > 100 µM | MDA-N > 100 µM | MOLT-4 > 100 µM | OVCAR-3 > 100 µM | OVCAR-8 > 100 µM | PC-3 > 100 µM | RXF 393 > 100 µM | SF-539 > 100 µM | SK-MEL-5 > 100 µM | SN12C > 100 µM | SR > 10 µM | UACC-62 > 100 µM

Cc1ccc(S(=O)(=O)n2c3c(c4ccccc42)CCN2C[C@H]([C@H](C)Br)CC[C@@H]32)cc1
inactive: A498 > 100 µM | CCRF-CEM 86.7 µM | COLO 205 > 100 µM | HT-29 > 100 µM | KM12 > 100 µM | M14 > 100 µM | MCF7 91.8 µM | MDA-N > 100 µM | MOLT-4 67.1 µM | NCI-H460 > 100 µM | OVCAR-3 > 100 µM | OVCAR-8 > 100 µM | PC-3 > 100 µM | RXF 393 > 100 µM | SF-539 > 100 µM | SK-MEL-5 29.2 µM | SR 4.01 µM | UACC-62 > 100 µM

O=C1C=C(Nc2ccc(S(=O)(=O)Nc3nccs3)cc2)c2ccccc2C1=O
inactive: A498 71 µM | CCRF-CEM 15.2 µM | HT-29 19.1 µM | KM12 17.8 µM | M14 21.9 µM | MCF7 18.9 µM | MDA-N 18.8 µM | MOLT-4 11.8 µM | NCI-H460 34 µM | OVCAR-3 17 µM | OVCAR-8 23.1 µM | PC-3 71.4 µM | RXF 393 > 100 µM | SF-539 21.1 µM | SK-MEL-5 19.9 µM | SN12C 24.6 µM | SR 39.5 µM | UACC-62 24.5 µM

CN1C(=O)C23CCCCC2CC1(c1ccccc1)S3 (stereo not drawn)
inactive: A498 > 100 µM | COLO 205 71.9 µM | HT-29 73.8 µM | KM12 > 100 µM | M14 > 100 µM | MCF7 78.2 µM | MDA-N > 100 µM | MOLT-4 38.3 µM | OVCAR-3 50.9 µM | OVCAR-8 > 100 µM | PC-3 44.1 µM | RXF 393 59.2 µM | SF-539 > 100 µM | SK-MEL-5 72.3 µM | SN12C 94.4 µM | SR 58.5 µM | UACC-62 > 100 µM

CC(=O)Oc1ccc2c(c1)oc1c3ccc(OC(C)=O)cc3n(C)c(=O)c21
inactive: CCRF-CEM 18.3 µM | COLO 205 21.6 µM | HT-29 31.8 µM | KM12 3.78 µM | M14 10.3 µM | MCF7 35.6 µM | MDA-N 32 µM | MOLT-4 25.1 µM | NCI-H460 36.3 µM | OVCAR-3 32.5 µM | OVCAR-8 22.5 µM | PC-3 22.1 µM | RXF 393 38.7 µM | SF-539 27.1 µM | SK-MEL-5 4.71 µM | SN12C 27.2 µM | SR 33.5 µM | UACC-62 34.8 µM

CCN(CC)C(=O)N[C@@H](Cc1ccccc1)C(=O)NC
inactive: A498 > 100 µM | CCRF-CEM > 100 µM | COLO 205 > 100 µM | HT-29 > 100 µM | KM12 > 100 µM | M14 > 100 µM | MCF7 > 100 µM | MDA-N > 100 µM | MOLT-4 > 100 µM | NCI-H460 > 100 µM | OVCAR-3 > 100 µM | OVCAR-8 > 100 µM | PC-3 > 100 µM | RXF 393 > 100 µM | SK-MEL-5 > 100 µM | SN12C > 100 µM | SR > 100 µM | UACC-62 > 100 µM

COC(=O)C1=C(O)c2ccc(Cl)cc2S(=O)(=O)N1C
inactive: A498 > 100 µM | CCRF-CEM 39.4 µM | COLO 205 > 100 µM | HT-29 > 100 µM | KM12 > 100 µM | M14 51.1 µM | MCF7 > 100 µM | MDA-N > 100 µM | MOLT-4 > 100 µM | NCI-H460 45.3 µM | PC-3 83.4 µM | RXF 393 > 100 µM | SK-MEL-5 97.1 µM | SN12C > 100 µM | SR > 100 µM | UACC-62 > 100 µM

Cn1c(COC(=O)NC2CCCCC2)c(COC(=O)NC2CCCCC2)c2ccc3ccccc3c21
inactive: A498 17.5 µM | CCRF-CEM 9.77 µM | COLO 205 33.2 µM | HT-29 53.6 µM | KM12 30 µM | M14 67.3 µM | MCF7 20.5 µM | MDA-N > 100 µM | MOLT-4 9.31 µM | NCI-H460 3.01 µM | OVCAR-3 58.3 µM | OVCAR-8 40.2 µM | PC-3 75.9 µM | RXF 393 24 µM | SF-539 16 µM | SK-MEL-5 31.7 µM | SR 2.96 µM | UACC-62 48.6 µM

CC(C)C1=CC23CCC4C(C)(C(=O)O)CCCC4(C)C2CC1C1C(=O)N(c2ccccc2N2C(=O)C4C5CC6C7(C)CCCC(C)(C(=O)O)C7CCC6(C=C5C(C)C)C4C2=O)C(=O)C13 (stereo not drawn)
inactive: A498 2.93 µM | CCRF-CEM 4.39 µM | COLO 205 4.57 µM | HT-29 3.32 µM | KM12 3.09 µM | M14 5.24 µM | MCF7 3.66 µM | MDA-N 5 µM | MOLT-4 2.85 µM | OVCAR-3 10.9 µM | OVCAR-8 4.52 µM | PC-3 3.23 µM | RXF 393 11.3 µM | SF-539 3.1 µM | SK-MEL-5 5.83 µM | SN12C 9.06 µM | SR 3.89 µM
